Source: paper PMC6854942, “Simultaneous Determination of Three Bioactive Constituents from Bletilla striata by UPLC-MS/MS and Application of the Technique to Pharmacokinetic Analyses” (Evidence-based Complementary and Alternative Medicine : eCAM, 2019)
Several values for one entry are separate records, joined by “and”; a condition that tells them apart may be missing. Identical values can stand only once.

Legend:
[1] = Pharmacokinetic study in rats after oral administration of B. striata extract (UPLC-MS/MS of plasma); type: in vivo, Sprague-Dawley rats; details: for bioavailability: rats, AUC0−t oral (22.2 g/kg extract) vs i.v. (1.64 g/kg extract), dose-corrected, read-out: Bioavailability (absolute); for MRT last: read-out: MRT0–t; for MRT inf: read-out: MRT0–∞
Procedure: (§1) An ACQUITY™ UPLC system (Waters Corp., Milford, MA, USA) with a conditioned autosampler and the ACQUITY™ UPLC BEH C18 analytical column (50 mm × 2.1 mm, internal diameter, 1.7 μm; Waters Corp., Milford, MA, USA) were used, to which a 6 mm precolumn filter unit was added. Analysis was carried out with an elution gradient of (A) acetonitrile and (B) water (both containing 0.1% formic acid) at a flow rate of 0.35 mL/min as follows: 0–0.5 min (10% A), 0.5–1.0 min (10–30% A), 1.0–2.0 min (30–35% A), 2.0–3.0 min (35–38% A), 3.0–4.0 min (38–90% A), and 4.0–5.0 min (90–10% A). The column and autosampler were maintained at 45°C and 15°C, respectively. The injection volume was 2 μL.
(§2) Mass spectrometric detection was performed using a Waters ACQUITY™ TQD triple quadrupole tandem mass spectrometer (Waters Corp., Manchester, UK) with an ESI interface in the positive ionization mode. The MS conditions were as follows: capillary voltage, 3.0 kV; desolvation gas flow, 650 L/h of nitrogen; and cone gas flow, 50 L/h of nitrogen. The collision gas (Ar) flow for MS/MS was maintained at 0.16 mL/min for collision-induced dissociation (CID). The source and desolvation gas temperatures were 120°C and 350°C, respectively. The multiple reaction monitoring (MRM) mode was used for quantification. All data were acquired using Masslynx™ V 4.1 Software and processed using Quanlyna™ V4.1 (Waters Corp., Millford, MA, USA).
(§3) Ten microliters of the IS solution (puerarin, 10 μg/mL in methanol) and 50 μL of 1% formic acid were added to 100 μL of rat plasma. Proteins were precipitated by addition of 400 μL of methanol, vortexing for 1 min, sonication for 5 min, followed by centrifugation at 13225 ×g for 10 min at 4°C, collecting the supernatant in a centrifuge tube, and drying at 37°C N2. Subsequently, 300 μL of the initial mobile phase was dissolved, sonicated for 5 min, and centrifuged at 5°C and 13225 ×g for 5 min, and the supernatant was used for analysis by UPLC-MS/MS.
(§4) The twelve Sprague-Dawley rats were housed under a controlled temperature regimen (22 ± 1°C) and relative humidity of 50–70%. The animals were maintained on a 12 h light/12 h dark cycle and had free access to food and water. They were fasted for 12 h before each experiment but allowed to drink freely during this time. Before the experiment, the B. striata extracts' intravenous and oral dosing solutions were prepared in physiological saline at concentrations of 1.03 g/mL and 2.78 g/mL, respectively. The 12 rats were randomly divided into two groups with 6 rats in each group. Group 1 underwent oral administration (22.2 g/kg), and group 2 underwent intravenous administration (1.64 g/kg). Blood samples (0.3 mL) were collected from the external right jugular veins of the rats into heparinized tubes at the designated time points (0.033, 0.083, 0.167, 0.33, 0.5, 1, 1.5, 2, 10, 24, 36, and 48 h for group 1 and 0.033, 0.083, 0.167, 0.25, 0.33, 0.5, 0.75, 1, 1.6, and 2 h for group 2). The blood samples were immediately centrifuged at 3000 ×g for 5 min. The plasma was removed and frozen at −20°C until further analysis.
(§5) Data are represented as mean± standard deviation. To determine the pharmacokinetic parameters, the concentration-time data were analyzed by DAS 2.0 software (Mathematical Pharmacology Professional Committee of China, Shanghai, China). Statistical analysis was performed using the statistical software package Statistical Product and Service Solutions (SPSS 11.5, USA). The absolute bioavailability was calculated using the following equation: F (%) = [AUC0 − t (oral) × dose (i.v.)]/[AUC0 − t (i.v.) × dose (oral)]) × 100.

[2] = Pharmacokinetic study in rats after intravenous administration of B. striata extract (UPLC-MS/MS of plasma); type: in vivo, Sprague-Dawley rats; details: intravenous administration of B. striata extract 1.64 g/kg, rat plasma, n = 6; for MRT last / MRT inf: Sprague-Dawley; for MRT last: read-out: MRT0–t; for MRT inf: read-out: MRT0–∞
Procedure: as §1, §2, §3, §4, §5

[3] = Stability of each compound in rat plasma (QC samples); type: in vitro ADME; details: n = 5
Procedure: The stability of each compound in rat plasma was evaluated using mixtures containing low, medium, or high concentrations of the QC sample (n = 5 for each concentration level). The stability of each compound was tested under three conditions: room temperature for 6 h, three freeze (−20°C)-thaw (room temperature) cycles, and storage at 4°C for 12 h.

[4] = Sprague-Dawley, oral administration of B. striata extract 22.2 g/kg, rat plasma, n = 6
[5] = oral administration of B. striata extract 22.2 g/kg, rat plasma, n = 6
[6] = 3 freeze-thaw cycles (−20°C / room temperature), low QC (spiked 0.029 / 0.022 / 0.015 μg/mL)
[7] = 3 freeze-thaw cycles, high QC (spiked 36.78 / 13.75 / 23.78 μg/mL)
[8] = 3 freeze-thaw cycles, medium QC (spiked 4.09 / 2.75 / 2.64 μg/mL)
[9] = 6 h, room temperature, high QC (spiked 36.78 / 13.75 / 23.78 μg/mL)
[10] = 6 h, room temperature, low QC (spiked 0.029 / 0.022 / 0.015 μg/mL)
[11] = 6 h, room temperature, medium QC (spiked 4.09 / 2.75 / 2.64 μg/mL)
[12] = 12 h, 4°C, high QC (spiked 36.78 / 13.75 / 23.78 μg/mL)
[13] = 12 h, 4°C, low QC (spiked 0.029 / 0.022 / 0.015 μg/mL)
[14] = 12 h, 4°C, medium QC (spiked 4.09 / 2.75 / 2.64 μg/mL)

Row | bioavailability ([1]; Sprague-Dawley, rat, plasma) | Cmax [1, 4] | MRT last [1, 4] | MRT inf [1, 4] | AUC0–t [1, 5] | AUC0–∞ [1, 5] | MRT last [2] | MRT inf [2] | AUC0–t [2] | AUC0–∞ [2] | Accuracy [3, 6] | Calculated concentration [3, 6] | Calculated concentration [3, 7] | Calculated concentration [3, 8] | Calculated concentration [3, 9] | Accuracy [3, 10] | Calculated concentration [3, 10] | Calculated concentration [3, 11] | Accuracy [3, 12] | Calculated concentration [3, 12] | also measured | SMILES
1 | 87.5% and 87.4% | 23200 ± 5420 ng/mL | 15.6 ± 3.63 h | 19.7 ± 6.25 h | 458.12 ± 150.74 h∗μg/mL | 498.36 ± 173.09 h∗μg/mL | 0.45 ± 0.08 h | 0.51 ± 0.1 h | 38.7 ± 4.72 h∗μg/mL | 39.62 ± 4.26 h∗μg/mL | 93.1% | 0.027 ± 0.001 µg/mL | 34.17 ± 1.28 µg/mL | 3.83 ± 0.08 µg/mL | 34.95 ± 1.89 µg/mL | 103.4% | 0.03 ± 0.001 µg/mL | 3.77 ± 0.09 µg/mL | 94.4% | 34.71 ± 1.95 µg/mL | Tmax ([1]; Sprague-Dawley, rat, plasma, po, 22.2 g/kg, oral administration of B. striata extract 22.2 g/kg, rat plasma, n = 6): 6.44 ± 2.33 h; Accuracy [3, 7]: 92.9%; Accuracy [3, 8]: 93.6%; Accuracy [3, 9]: 95.0%; Accuracy [3, 11]: 92.2%; Accuracy [3, 13]: 96.6%; Calculated concentration [3, 13]: 0.028 ± 0.002 µg/mL; Accuracy [3, 14]: 95.8%; Calculated concentration [3, 14]: 3.92 ± 0.11 µg/mL | CC(C)C[C@@](O)(CC(=O)O)C(=O)O [α-Isobutylmalic acid]
2 | 9.8% | 3060 ± 4820 ng/mL | 12.4 ± 3.73 h | 16 ± 5.34 h | 20.56 ± 12.05 h∗μg/mL | 21.81 ± 12.04 h∗μg/mL | 0.68 ± 0.07 h | 0.93 ± 0.18 h | 15.47 ± 1.63 h∗μg/mL | 17.52 ± 2.66 h∗μg/mL | 100.3% | 0.022 ± 0.001 µg/mL | 13.92 ± 0.57 µg/mL | 2.74 ± 0.10 µg/mL | 13.69 ± 0.39 µg/mL | 100.2% | 0.022 ± 0.001 µg/mL | 2.77 ± 0.08 µg/mL | 96.1% | 13.22 ± 0.49 µg/mL | T max [1, 5]: 1.44 ± 2.29 h; T max ([1]; oral administration of B. striata extract 22.2 g/kg, rat plasma, n = 6, listed as gymnoside I): 0.16 h; Accuracy [3, 13]: 95.4%; Calculated concentration [3, 13]: 0.021 ± 0.001 µg/mL; Accuracy [3, 14]: 97.5%; Calculated concentration [3, 14]: 2.68 ± 0.15 µg/mL | CC(C)C[C@@](O)(CC(=O)O)C(=O)OCc1ccc(O[C@@H]2O[C@H](CO)[C@@H](O)[C@H](O)[C@H]2O)cc1 [Gymnoside I, gymnoside I]
3 | 0.6% | 3300 ± 3600 ng/mL | 5.62 ± 2.45 h | 9.31 ± 2.57 h | 3.10 ± 1.16 h∗μg/mL | 4.26 ± 1.93 h∗μg/mL | 0.36 ± 0.06 h | 0.39 ± 0.07 h | 36.71 ± 5.66 h∗μg/mL | 37.22 ± 5.99 h∗μg/mL | 100.7% | 0.015 ± 0.001 µg/mL | 21.8 ± 0.94 µg/mL | 2.62 ± 0.09 µg/mL | 21.3 ± 0.94 µg/mL | 106.7% | 0.016 ± 0.001 µg/mL | 2.62 ± 0.09 µg/mL | 92.3% | 21.95 ± 1.1 µg/mL | T max [1, 5]: 0.16 ± 0.11 h; T max ([1]; oral administration of B. striata extract 22.2 g/kg, rat plasma, n = 6, listed as militarine): 1.44 h; Accuracy [3, 7]: 91.7%; Accuracy [3, 8]: 99.2%; Accuracy [3, 9]: 89.6%; Accuracy [3, 11]: 99.2%; Accuracy [3, 13]: 100.1%; Calculated concentration [3, 13]: 0.015 ± 0.001 µg/mL; Accuracy [3, 14]: 93.2%; Calculated concentration [3, 14]: 2.46 ± 0.28 µg/mL | CC(C)C[C@@](O)(CC(=O)OCc1ccc(O[C@@H]2O[C@H](CO)[C@@H](O)[C@H](O)[C@H]2O)cc1)C(=O)OCc1ccc(O[C@@H]2O[C@H](CO)[C@@H](O)[C@H](O)[C@H]2O)cc1 [Militarine, militarine]
